# Experiments:
# MOLT-4 = assay: NCI 60 human tumor cell line screen (SRB); format: cell-based; conditions: MOLT-4 (Leukemia); 48 h
# HT29 = assay: NCI 60 human tumor cell line screen (SRB); format: cell-based; conditions: HT29 (Colon Cancer); 48 h
# Method in brief: (§1)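 Cells plated 24 h before dosing, with time-zero plates TCA-fixed at drug addition; five concentrations (10-fold or ½-log dilutions) added and incubated 48 h at 37 °C, 5% CO2. Adherent cells fixed with 10% TCA, stained with 0.4% SRB, absorbance read at 515 nm; GI50, TGI and LC50 derived from percentage growth versus time zero and control.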
# UO-31 = assay: NCI 60 human tumor cell line screen (SRB); format: cell-based; conditions: UO-31 (Renal Cancer); 48 h
# Method in brief: as §1
# HOP-62 = assay: NCI 60 human tumor cell line screen (SRB); format: cell-based; conditions: HOP-62 (Non-Small Cell Lung Cancer); 48 h
# [1] = system: chymotrypsin-like (CT-L) proteasome activity, OCI-AML-2; assay: Proteasome enzymatic activity (tumor cell lysates); format: biochemical, human; conditions: OCI-AML-2 cell lysate; mean ± standard deviation
# Procedure: Cells were harvested by centrifugation at 1,200 rpm at room temperature. Cell pellets were washed with PBS and lysed with assay lysis buffer (50 mM HEPES (N-2-hydroxyethylpiperazine-N′-2-ethanesulfonic acid), pH 7.5; 150 mM NaCl; 1% Triton X-100; 2 mM ATP). Cell lysates were incubated on ice for 30 minutes, mixed by vortex every 5 minutes, and then centrifuged at 12,000 g for 10 minutes. The supernatant was transferred to a 96-well plate. For each assay, 10 μg of total protein were incubated for 1 hour at 37° C. with increasing concentrations (1 nM to 10 μM) of test compound diluted in assay buffer (50 mM Tris-HCl (tris(hydroxymethyl)aminomethane-HCl), pH 7.5; 150 mM NaCl). DMSO alone was used as a control in every assay plate. After incubation, a specific fluorogenic proteasome substrate was added to each assay reaction at a final concentration of 40 μM in a total volume of 100 μL. N-Succinyl-Leu-Leu-Val-Tyr-7-amino-4-methylcoumarin (Suc-Leu-Leu-Val-Tyr-AMC) was used for measuring chymotrypsin-like (CT-L) activity, t-butoxycarbonyl-Leu-Arg-Arg-7-amino-4-methylcoumarin (Boc-Leu-Arg-Arg-AMC) for trypsin-like (T-L) activity, and benzyloxycarbonyl-L-leucyl-L-leucyl-L-glutamyl-7-amino-4-methylcoumarin (Z-Leu-Leu-Glu-AMC) for caspase-like (C-L) activity. The excitation wavelength was set at 360 nm and the fluorescence emission wavelength of AMC was detected at 460 nm. The fluorescence of free AMC released during the enzymatic reaction was measured with a SpectraMax M5 fluorescent spectrophotometric plate reader (Molecular Devices, Sunnyvale, Calif.). AMC release rate was measured at 37° C. in a kinetic mode, recording every 5 minutes for 30 minutes. Experiments were performed in triplicate and repeated at least twice.
# Table 9 summarizes data obtained for representative compounds of Formula I for cell viability and CT-L proteasome activity using OCI-AML-2 and KMS-11 cell lines.
compound,measurement,setting,value
"C[C@]1(C(=O)[C@H](Cc2ccccc2)NC(=O)[C@H](COC(F)F)NC(=O)[C@H](COC(F)F)NC(=O)CN2CCOCC2)CO1 [Example 26, (S)-N-{(S)-1-[(S)-1-Benzyl-2-((R)-2-methyl-oxiranyl)-2-oxo-ethylcarbamoyl]-2-difluoromethoxyethyl}-3-difluoromethoxy-2-(2-morpholin-4-yl-acetylamino)-propio-namide]",Log10GI50,MOLT-4,−7.69
same,Log10LC50,MOLT-4,>−4.00
same,Log10TGI50,MOLT-4,−7.11
same,Log10GI50,HT29,−7.45
same,Log10LC50,HT29,>−4.00
same,Log10TGI50,HT29,−5.84
same,Log10GI50,UO-31,−6.62
same,Log10LC50,UO-31,−5.17
same,Log10TGI50,UO-31,−5.95
same,Log10GI50,HOP-62,−7.75
same,Log10LC50,HOP-62,−7.09
same,Log10TGI50,HOP-62,−7.42
same,IC50,[1],358 ± 177 nM
"CC(C)C[C@H](NC(=O)[C@H](Cc1ccccc1)NC(=O)[C@H](COC(F)F)NC(=O)CN1CCOCC1)C(=O)[C@@]1(C)CO1 [Example 25, (2S)-2-[[(2S)-3-(difluoromethoxy)-2-[(2-morpholinoacetyl)amino]propanoyl]amino]-N-[(1S)-3-methyl-1-[(2R)-2-methyloxirane-2-carbonyl]butyl]-3-phenyl-propanamide]",Log10GI50,MOLT-4,−7.69
same,Log10LC50,MOLT-4,>−4.00
same,Log10TGI50,MOLT-4,−7.11
same,Log10GI50,HT29,−7.45
same,Log10LC50,HT29,>−4.00
same,Log10TGI50,HT29,−5.84
same,Log10GI50,UO-31,−6.62
same,Log10LC50,UO-31,−5.17
same,Log10TGI50,UO-31,−5.95
same,Log10GI50,HOP-62,−7.75
same,Log10LC50,HOP-62,−7.09
same,Log10TGI50,HOP-62,−7.42
C[C@]1(C(=O)[C@H](Cc2ccccc2)NC(=O)[C@H](Cc2ccccc2)NC(=O)[C@H](COC(F)F)NC(=O)CN2CCOCC2)CO1 [Example 29],Log10GI50,MOLT-4,−7.54
same,Log10LC50,MOLT-4,>−4.00
same,Log10TGI50,MOLT-4,−7.05
same,Log10GI50,HT29,−7.31
same,Log10LC50,HT29,>−4.00
same,Log10TGI50,HT29,−4.77
same,Log10GI50,UO-31,−6.46
same,Log10LC50,UO-31,−4.62
same,Log10TGI50,UO-31,−5.71
same,Log10GI50,HOP-62,−7.31
same,Log10LC50,HOP-62,−4.32
same,Log10TGI50,HOP-62,−6.53
same,IC50,[1],132 ± 10.4 nM
"Cc1ncc(C(=O)N[C@@H](COC(F)F)C(=O)N[C@@H](COC(F)F)C(=O)N[C@@H](Cc2ccccc2)C(=O)[C@@]2(C)CO2)s1 [Example 1, 2-methyl-thiazole-5-carboxylic acid ((S)-1-{(S)-1-[(S)-1-benzyl-2-((R)-2-methyloxiranyl)-2-oxo-ethylcarbamoyl]-2-difluoromethoxyethylcarbamoyl}-2-difluoromethoxyethyl)-amide]",Log10GI50,MOLT-4,−7.37
same,Log10LC50,MOLT-4,>−4.00
same,Log10TGI50,MOLT-4,>−4.00
same,Log10GI50,HT29,−7.29
same,Log10LC50,HT29,−4.32
same,Log10TGI50,HT29,−6.22
same,Log10GI50,UO-31,−5.84
same,Log10LC50,UO-31,−4.59
same,Log10TGI50,UO-31,−5.32
same,Log10GI50,HOP-62,−6.41
same,Log10LC50,HOP-62,>−4.00
same,Log10TGI50,HOP-62,>−4.00
same,IC50,[1],39.2 ± 2.12 nM

# Reference: US9441012B2, “Fluorinated epoxyketone-based compounds and uses thereof as proteasome inhibitors” (FLUORINOV PHARMA INC., priority 2012, dated 2016)
